From patent US8192962B2, “Processes for detecting toxic substances” (Daikin Industries, Ltd., priority 2001, dated 2012)

Test system: Unknown protein yeast genes
Experiment: DNA chip mRNA expression in yeast, unknown protein yeast genes (Table 1)
Assay type: cell-based, Saccharomyces cerevisiae S288C
Summary of the method: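 Untreated cultures served as reference for log-phase S288C yeast given a growth-inhibiting, non-lethal toxicant dose for 2 h at 25° C. in YPD. Gene expression was measured on a whole-genome DNA chip from Cy3/Cy5-labeled cDNA.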

Substance: manganese ethylenebis(dithiocarbamate) [(8)]
- The level of expressed mRNA in the presence of chemical substance/The level of expressed mRNA in the absence of chemical substance (yeast gene YAL053W, incubated two hours with chemical substance): 0.8
- The level of expressed mRNA in the presence of chemical substance/The level of expressed mRNA in the absence of chemical substance (yeast gene YBL048W): 1.2
- The level of expressed mRNA in the presence of chemical substance/The level of expressed mRNA in the absence of chemical substance (yeast gene YBL107C): 1.9
- The level of expressed mRNA in the presence of chemical substance/The level of expressed mRNA in the absence of chemical substance (yeast gene YDL072C, incubated two hours with chemical substance): 0.8
- The level of expressed mRNA in the presence of chemical substance/The level of expressed mRNA in the absence of chemical substance (yeast gene YDL204W, incubated two hours with chemical substance): 1.1
- The level of expressed mRNA in the presence of chemical substance/The level of expressed mRNA in the absence of chemical substance (yeast gene YDL222C, incubated two hours with chemical substance): 0.7
- The level of expressed mRNA in the presence of chemical substance/The level of expressed mRNA in the absence of chemical substance (yeast gene YDR330W, incubated two hours with chemical substance): 1.1
- The level of expressed mRNA in the presence of chemical substance/The level of expressed mRNA in the absence of chemical substance (yeast gene YDR411C, incubated two hours with chemical substance): 0.9
- The level of expressed mRNA in the presence of chemical substance/The level of expressed mRNA in the absence of chemical substance (yeast gene YDR511W, incubated two hours with chemical substance): 1.7
- The level of expressed mRNA in the presence of chemical substance/The level of expressed mRNA in the absence of chemical substance (yeast gene YDR545W, incubated two hours with chemical substance): 0.6
- The level of expressed mRNA in the presence of chemical substance/The level of expressed mRNA in the absence of chemical substance (yeast gene YEL001C, incubated two hours with chemical substance): 1.2
- The level of expressed mRNA in the presence of chemical substance/The level of expressed mRNA in the absence of chemical substance (yeast gene YER004W, incubated two hours with chemical substance): 1.1
- The level of expressed mRNA in the presence of chemical substance/The level of expressed mRNA in the absence of chemical substance (yeast gene YER035W, incubated two hours with chemical substance): 1.2
- The level of expressed mRNA in the presence of chemical substance/The level of expressed mRNA in the absence of chemical substance (yeast gene YER079W, incubated two hours with chemical substance): 1.4
- The level of expressed mRNA in the presence of chemical substance/The level of expressed mRNA in the absence of chemical substance (yeast gene YER106W, incubated two hours with chemical substance): 1.2
- The level of expressed mRNA in the presence of chemical substance/The level of expressed mRNA in the absence of chemical substance (yeast gene YER158C, incubated two hours with chemical substance): 0.9
- The level of expressed mRNA in the presence of chemical substance/The level of expressed mRNA in the absence of chemical substance (yeast gene YER163C, incubated two hours with chemical substance): 1.4
- The level of expressed mRNA in the presence of chemical substance/The level of expressed mRNA in the absence of chemical substance (yeast gene YER175C, incubated two hours with chemical substance): 1.1
- The level of expressed mRNA in the presence of chemical substance/The level of expressed mRNA in the absence of chemical substance (yeast gene YFL006W, incubated two hours with chemical substance): 1.0
- The level of expressed mRNA in the presence of chemical substance/The level of expressed mRNA in the absence of chemical substance (yeast gene YFL010C, incubated two hours with chemical substance): 1.0
- The level of expressed mRNA in the presence of chemical substance/The level of expressed mRNA in the absence of chemical substance (yeast gene YFL024C): 0.9
- The level of expressed mRNA in the presence of chemical substance/The level of expressed mRNA in the absence of chemical substance (yeast gene YFL032W, incubated two hours with chemical substance): 0.4
- The level of expressed mRNA in the presence of chemical substance/The level of expressed mRNA in the absence of chemical substance (yeast gene YGL037C, incubated two hours with chemical substance): 1.2
- The level of expressed mRNA in the presence of chemical substance/The level of expressed mRNA in the absence of chemical substance (yeast gene YGL047W, incubated two hours with chemical substance): 1.1
- The level of expressed mRNA in the presence of chemical substance/The level of expressed mRNA in the absence of chemical substance (yeast gene YGL053W, incubated two hours with chemical substance): 1.2
- The level of expressed mRNA in the presence of chemical substance/The level of expressed mRNA in the absence of chemical substance (yeast gene YGL121C): 3.0
- The level of expressed mRNA in the presence of chemical substance/The level of expressed mRNA in the absence of chemical substance (yeast gene YGL199C, incubated two hours with chemical substance): 0.7
- The level of expressed mRNA in the presence of chemical substance/The level of expressed mRNA in the absence of chemical substance (yeast gene YGR101W, incubated two hours with chemical substance): 0.8
- The level of expressed mRNA in the presence of chemical substance/The level of expressed mRNA in the absence of chemical substance (yeast gene YGR110W): 1.5
- The level of expressed mRNA in the presence of chemical substance/The level of expressed mRNA in the absence of chemical substance (yeast gene YGR130C, incubated two hours with chemical substance): 0.9
- The level of expressed mRNA in the presence of chemical substance/The level of expressed mRNA in the absence of chemical substance (yeast gene YGR154C, incubated two hours with chemical substance): 1.7
- The level of expressed mRNA in the presence of chemical substance/The level of expressed mRNA in the absence of chemical substance (yeast gene YGR221C, incubated two hours with chemical substance): 1.1
- The level of expressed mRNA in the presence of chemical substance/The level of expressed mRNA in the absence of chemical substance (yeast gene YHR138C, incubated two hours with chemical substance): 1.4
- The level of expressed mRNA in the presence of chemical substance/The level of expressed mRNA in the absence of chemical substance (yeast gene YHR199C, incubated two hours with chemical substance): 1.0
- The level of expressed mRNA in the presence of chemical substance/The level of expressed mRNA in the absence of chemical substance (yeast gene YIL023C, incubated two hours with chemical substance): 0.7
- The level of expressed mRNA in the presence of chemical substance/The level of expressed mRNA in the absence of chemical substance (yeast gene YIL041W, incubated two hours with chemical substance): 0.9
- The level of expressed mRNA in the presence of chemical substance/The level of expressed mRNA in the absence of chemical substance (yeast gene YIL087C, incubated two hours with chemical substance): 1.1
- The level of expressed mRNA in the presence of chemical substance/The level of expressed mRNA in the absence of chemical substance (yeast gene YJL057C, incubated two hours with chemical substance): 1.5
- The level of expressed mRNA in the presence of chemical substance/The level of expressed mRNA in the absence of chemical substance (yeast gene YJL066C, incubated two hours with chemical substance): 0.8
- The level of expressed mRNA in the presence of chemical substance/The level of expressed mRNA in the absence of chemical substance (yeast gene YJL082W, incubated two hours with chemical substance): 0.9
- The level of expressed mRNA in the presence of chemical substance/The level of expressed mRNA in the absence of chemical substance (yeast gene YJL151C, incubated two hours with chemical substance): 0.8
- The level of expressed mRNA in the presence of chemical substance/The level of expressed mRNA in the absence of chemical substance (yeast gene YJL152W, incubated two hours with chemical substance): 0.7
- The level of expressed mRNA in the presence of chemical substance/The level of expressed mRNA in the absence of chemical substance (yeast gene YJL161W, incubated two hours with chemical substance): 1.4
- The level of expressed mRNA in the presence of chemical substance/The level of expressed mRNA in the absence of chemical substance (yeast gene YJL171C, incubated two hours with chemical substance): 0.9
- The level of expressed mRNA in the presence of chemical substance/The level of expressed mRNA in the absence of chemical substance (yeast gene YJR008W, incubated two hours with chemical substance): 1.1
- The level of expressed mRNA in the presence of chemical substance/The level of expressed mRNA in the absence of chemical substance (yeast gene YJR054W, incubated two hours with chemical substance): 1.6
- The level of expressed mRNA in the presence of chemical substance/The level of expressed mRNA in the absence of chemical substance (yeast gene YKL071W): 24.7
- The level of expressed mRNA in the presence of chemical substance/The level of expressed mRNA in the absence of chemical substance (yeast gene YKL086W, incubated two hours with chemical substance): 1.1
- The level of expressed mRNA in the presence of chemical substance/The level of expressed mRNA in the absence of chemical substance (yeast gene YKL151C, incubated two hours with chemical substance): 1.0
- The level of expressed mRNA in the presence of chemical substance/The level of expressed mRNA in the absence of chemical substance (yeast gene YKL153W, incubated two hours with chemical substance): 0.7
